From PubChem BioAssay AID1963436 (Molecular Pharmacology Branch, DTP, NCI, 2024)

Tested on: OVCAR-5 complex spheroid (HUVEC/MSC), viability % T/C
Assay: Anticancer human tumor OVCAR-5 cell line growth inhibition [Asc];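 note: spheroids exposed to agents for 7 days before readout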;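 for viability, T/C: 100% = DMSO vehicle-treated wells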
Details: for IC50: curve of first compound; for viability, T/C: stronger effect = lower value
How it was run: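 Tumor cells were grown as multicellular spheroids with stromal HUVEC and mesenchymal stem cells and treated singly or in combination. Concentrations fell in half-log steps from the clinical Cmax, or from 10 microM where none was known.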

Compound: O=C(c1cc(Cc2n[nH]c(=O)c3ccccc23)ccc1F)N1CCN(C(=O)C2CC2)CC1 + CCN1C(C(=O)NC23CCC(C(=O)O)(CC2)CC3)C(c2cccc(Cl)c2F)C2(C(=O)Nc3cc(Cl)ccc32)C12CCCCC2
- IC50 (second compound 0.03 µM): > 10 µM
- IC50 (second compound 0.0949 µM): > 10 µM
- IC50 (second compound 0.3 µM): > 10 µM
- IC50 (second compound 0.949 µM): > 10 µM
- IC50 (second compound 3 µM): > 10 µM
- viability, T/C (second compound 0.03 µM, first compound 0.0316 µM): 96%
- viability, T/C (second compound 0.03 µM, first compound 0.1 µM): 104%
- viability, T/C (second compound 0.03 µM, first compound 0.316 µM): 83.9%
- viability, T/C (second compound 0.03 µM, first compound 1 µM): 86.8%
- viability, T/C (second compound 0.03 µM, first compound 3.16 µM): 92.5%
- viability, T/C (second compound 0.03 µM, first compound 10 µM): 83.3%
- viability, T/C (second compound 0.0949 µM, first compound 0.0316 µM): 101%
- viability, T/C (second compound 0.0949 µM, first compound 0.1 µM): 110%
- viability, T/C (second compound 0.0949 µM, first compound 0.316 µM): 93.8%
- viability, T/C (second compound 0.0949 µM, first compound 1 µM): 85.8%
- viability, T/C (second compound 0.0949 µM, first compound 3.16 µM): 85.4%
- viability, T/C (second compound 0.0949 µM, first compound 10 µM): 85%
- viability, T/C (second compound 0.3 µM, first compound 0.0316 µM): 101%
- viability, T/C (second compound 0.3 µM, first compound 0.1 µM): 97.2%
- viability, T/C (second compound 0.3 µM, first compound 0.316 µM): 97.7%
- viability, T/C (second compound 0.3 µM, first compound 1 µM): 75.1%
- viability, T/C (second compound 0.3 µM, first compound 3.16 µM): 86.3%
- viability, T/C (second compound 0.3 µM, first compound 10 µM): 82.7%
- viability, T/C (second compound 0.949 µM, first compound 0.0316 µM): 106%
- viability, T/C (second compound 0.949 µM, first compound 0.1 µM): 105%
- viability, T/C (second compound 0.949 µM, first compound 0.316 µM): 102%
- viability, T/C (second compound 0.949 µM, first compound 1 µM): 92%
- viability, T/C (second compound 0.949 µM, first compound 3.16 µM): 89%
- viability, T/C (second compound 0.949 µM, first compound 10 µM): 97.6%
- viability, T/C (second compound 3 µM, first compound 0.0316 µM): 104%
- viability, T/C (second compound 3 µM, first compound 0.1 µM): 115%
- viability, T/C (second compound 3 µM, first compound 0.316 µM): 111%
- viability, T/C (second compound 3 µM, first compound 1 µM): 96.5%
- viability, T/C (second compound 3 µM, first compound 3.16 µM): 88.9%
- viability, T/C (second compound 3 µM, first compound 10 µM): 91.5%
